Active and inactive are the calls of the source. No cut-off for these calls is given here.
Legend:
[1] = target: T1, Heat shock protein HSP 90-alpha (Homo sapiens, UniProt P07900); assay: Inhibition of recombinant Homo sapiens (human) Hsp90 alpha ATPase activity assessed as inorganic phosphate release at 10 uM by malachite green colorimetric method
[2] = target: T1, Heat shock protein HSP 90-alpha; assay: Inhibition of recombinant Homo sapiens (human) Hsp90 alpha ATPase activity assessed as inorganic phosphate release by malachite green colorimetric method

## Cc1ccc(NC(=O)C[n+]2cccc(C(=O)Nc3cccc(C)c3)c2)cc1
[1]
  inhibition: 16%

## COc1ccc(NC(=O)C[n+]2ccccc2)cc1
[2]
  IC50: 13.3 µM
[1]
  inhibition: 43%

## O=C(C[n+]1cccc(C(=O)Nc2ccccc2)c1)Nc1ccc(Cl)cc1
[1]
  inhibition: 17%

## O=C(C[n+]1cccc(C(=O)Nc2ccccc2)c1)Nc1ccc([N+](=O)[O-])cc1
[1]
  inhibition: 11%

## COc1ccc(NC(=O)C[n+]2cccc(C(=O)Nc3ccc(SC)cc3)c2)cc1
[1]
  inhibition: 29%

## N=C(N)NS(=O)(=O)c1ccc(NC(=O)C[n+]2ccccc2)cc1
[1]
  inhibition: 20%

## O=C(C[n+]1ccccc1)Nc1ccccc1
[1]
  inhibition: 3%

## C=CCNC(=O)C[n+]1cccc(C(N)=O)c1
[1]
  inhibition: inactive

## CSc1ccc(NC(=O)c2ccc[n+](CC(=O)Nc3ccc(Cl)cc3)c2)cc1
[1]
  inhibition: 19%

## NS(=O)(=O)c1ccc(NC(=O)C[n+]2cccc(C(=O)Nc3ccccc3)c2)cc1
[2]
  IC50: 26.6 µM
[1]
  inhibition: 47%

## Cc1ccccc1NC(=O)C[n+]1cccc(C(N)=O)c1
[1]
  inhibition: 8%

## Cc1ccc(NC(=O)C[n+]2cccc(C(=O)Nc3ccc(Cl)cc3)c2)cc1
[2]
  IC50: 17.3 µM
[1]
  inhibition: 48%

## Cc1ccc(NC(=O)C[n+]2cccc(C(N)=O)c2)cc1
[2]
  IC50: 42.2 µM
[1]
  inhibition: 34%

## CSc1ccc(NC(=O)C[n+]2cccc(C(=O)Nc3ccc(Cl)cc3)c2)cc1
[1]
  inhibition: 24%

## NC(=O)c1ccc[n+](CC(=O)Nc2ccccc2)c1
[2]
  IC50: 13.3 µM
[1]
  inhibition: 37%

## CSc1ccc(NC(=O)C[n+]2cccc(C(=O)Nc3ccccc3)c2)cc1
[1]
  inhibition: 14%

## COc1ccc(NC(=O)c2ccc[n+](CC(=O)Nc3ccc([N+](=O)[O-])cc3)c2)cc1
[1]
  inhibition: inactive

## C=CCNC(=O)c1ccc[n+](CC(=O)Nc2ccc(C)cc2)c1
[1]
  inhibition: 23%

## NS(=O)(=O)c1ccc(NC(=O)C[n+]2ccccc2)cc1
[1]
  inhibition: 7%

## CC(=O)NS(=O)(=O)c1ccc(NC(=O)C[n+]2cccc(C(N)=O)c2)cc1
[2]
  IC50: 12.7 µM
[1]
  inhibition: 36%

## O=C(C[n+]1ccccc1)Nc1ccc([N+](=O)[O-])cc1
[2]
  IC50: 14.9 µM
[1]
  inhibition: 34%

## Cc1ccc(NC(=O)C[n+]2ccccc2)cc1
[1]
  inhibition: inactive

## NS(=O)(=O)c1ccc(NC(=O)C[n+]2cccc(C(=O)Nc3ccc(Cl)cc3)c2)cc1
[1]
  inhibition: 3%

## NS(=O)(=O)c1ccc(NC(=O)C[n+]2cccc(C(=O)Nc3ccc([N+](=O)[O-])cc3)c2)cc1
[1]
  inhibition: 8%

## O=C(C[n+]1ccccc1)Nc1ccc(Cl)cc1
[1]
  inhibition: 3%

## NC(=O)c1ccc[n+](CC(=O)Nc2ccc(Cl)cc2)c1
[1]
  inhibition: 24%

## CCOC(=O)C[n+]1cccc(C(N)=O)c1
[1]
  inhibition: 13%

## COc1ccc(NC(=O)C[n+]2cccc(C(=O)Nc3ccccc3)c2)cc1
[1]
  inhibition: 4%

## COc1ccc(NC(=O)c2ccc[n+](CC(=O)Nc3ccc(S(N)(=O)=O)cc3)c2)cc1
[1]
  inhibition: 23%

## COc1ccc(NC(=O)C[n+]2cccc(C(=O)Nc3ccc(Cl)cc3)c2)cc1
[1]
  inhibition: 2%

## CSc1ccc(NC(=O)c2ccc[n+](CC(=O)Nc3ccc(C)cc3)c2)cc1
[1]
  inhibition: 18%

## NC(=O)c1ccc[n+](CCc2ccccc2)c1
[1]
  inhibition: 9%

## C=CCNC(=O)c1ccc[n+](CC(=O)Nc2ccc([N+](=O)[O-])cc2)c1
[1]
  inhibition: 20%

## N=C(N)NS(=O)(=O)c1ccc(NC(=O)C[n+]2cccc(C(N)=O)c2)cc1
[1]
  inhibition: 29%

## O=C(C[n+]1cccc(C(=O)Nc2ccc(Cl)cc2)c1)Nc1ccc(Cl)cc1
[1]
  inhibition: inactive

## O=C(C[n+]1ccccc1)NCc1ccccc1
[2]
  IC50: 49.6 µM
[1]
  inhibition: 36%

## C=CCNC(=O)c1ccc[n+](CC(=O)Nc2ccc(Cl)cc2)c1
[1]
  inhibition: 1.6%

## Cc1cccc(NC(=O)C[n+]2cccc(C(N)=O)c2)c1
[2]
  IC50: 13.2 µM
[1]
  inhibition: 34%

## C=CCNC(=O)c1ccc[n+](CC(=O)Nc2ccc(OC)cc2)c1
[2]
  IC50: 48.5 µM
[1]
  inhibition: 32%

## Cc1ccc(NC(=O)C[n+]2cccc(C(=O)Nc3ccc([N+](=O)[O-])cc3)c2)cc1
[1]
  inhibition: 21%

## Cc1ccc(NC(=O)C[n+]2cccc(C(=O)Nc3ccccc3)c2)cc1
[2]
  IC50: 7.4 µM
[1]
  inhibition: 59%

## CC(=O)NS(=O)(=O)c1ccc(NC(=O)C[n+]2ccccc2)cc1
[2]
  IC50: 12.7 µM
[1]
  inhibition: 46%

## COc1ccc(NC(=O)C[n+]2cccc(C(N)=O)c2)cc1
[1]
  inhibition: 20%

## COc1ccc(NC(=O)c2ccc[n+](CC(=O)Nc3ccc(Cl)cc3)c2)cc1
[1]
  inhibition: 10%

## NC(=O)c1ccc[n+](CC(=O)Nc2ccc(S(N)(=O)=O)cc2)c1
[2]
  IC50: 12 µM
[1]
  inhibition: 32%

## Cc1cccc(NC(=O)C[n+]2ccccc2)c1
[1]
  inhibition: 12%

## COc1ccc(NC(=O)C[n+]2cccc(C(=O)Nc3ccc(OC)cc3)c2)cc1
[1]
  inhibition: 3%

## O=C(C[n+]1cccc(C(=O)Nc2ccc(Cl)cc2)c1)Nc1ccc([N+](=O)[O-])cc1
[1]
  inhibition: 24%

## Cc1cccc(NC(=O)c2ccc[n+](CC(=O)Nc3ccc(Cl)cc3)c2)c1
[1]
  inhibition: 24%

## COc1ccc(NC(=O)c2ccc[n+](CC(=O)Nc3ccc(C)cc3)c2)cc1
[1]
  inhibition: 20%

## Cc1ncc(C[n+]2csc(CCO)c2C)c(N)n1 [THIAMINE ION]
[2]
  IC50: 12.5 µM
[1]
  inhibition: 40%

## NC(=O)c1ccc[n+](CC(=O)NCCc2ccccc2)c1
[2]
  IC50: 16.4 µM
[1]
  inhibition: 46%

## NC(=O)c1ccc[n+](CC(=O)Nc2ccc([N+](=O)[O-])cc2)c1
[2]
  IC50: 7.6 µM
[1]
  inhibition: 62%

## NC(=O)c1ccc[n+](Cc2ccccc2)c1
[1]
  inhibition: 10%

## NC(=O)c1ccc[n+](CC(=O)NCc2ccccc2)c1
[1]
  inhibition: 20%

## CSc1ccc(NC(=O)c2ccc[n+](CC(=O)Nc3ccc([N+](=O)[O-])cc3)c2)cc1
[1]
  inhibition: 3%

## COc1ccc(NC(=O)C[n+]2cccc(C(=O)Nc3ccc([N+](=O)[O-])cc3)c2)cc1
[1]
  inhibition: inactive

— ChEMBL document CHEMBL3046576, “Rational exploration of new pyridinium-based HSP90 inhibitors tailored to thiamine structure” (Med Chem Res, 2012)
